The record followed here is patent US20230339970A1, “CASEIN KINASE 1 DELTA MODULATORS” (priority 2020, published 2023).

Assay [1] addresses T1, human recombinant GST cleaved CSNK1D (Homo sapiens, UniProt P48730).
T1 construct: GST (cleaved yes); purchased University of Dundee clone DU 19064
Put plainly: Purified Enzyme Assay (ADP-Glo CSNK1D Kinase Assay). Type of assay: biochemical. Particulars: 2 nM CSNK1D; peptide substrate 150 μM; ATP 20 μM; 45 minutes at room temperature. Summed up:
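GST-cleaved human recombinant CSNK1D phosphorylates peptide PLSRTL-pS-VASLPGL with ATP; compounds added in dose-response, 45 min at room temperature. ADP formed measured by ADP-Glo luminescence and converted to percent activity.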

A further assay has as its target T2, human CSNK1D (Homo sapiens, UniProt P48730).
T2 construct: expressed in transfected cells
Put plainly: Whole Cell nBRET CSNK1D Binding Assay. The settings on record: living CHO cells stably expressing human CSNK1D tagged with nanoluciferase; NanoBret tracer 130 nM; 2 hours at 37 C.

T1 sequence (P48730 whole entry): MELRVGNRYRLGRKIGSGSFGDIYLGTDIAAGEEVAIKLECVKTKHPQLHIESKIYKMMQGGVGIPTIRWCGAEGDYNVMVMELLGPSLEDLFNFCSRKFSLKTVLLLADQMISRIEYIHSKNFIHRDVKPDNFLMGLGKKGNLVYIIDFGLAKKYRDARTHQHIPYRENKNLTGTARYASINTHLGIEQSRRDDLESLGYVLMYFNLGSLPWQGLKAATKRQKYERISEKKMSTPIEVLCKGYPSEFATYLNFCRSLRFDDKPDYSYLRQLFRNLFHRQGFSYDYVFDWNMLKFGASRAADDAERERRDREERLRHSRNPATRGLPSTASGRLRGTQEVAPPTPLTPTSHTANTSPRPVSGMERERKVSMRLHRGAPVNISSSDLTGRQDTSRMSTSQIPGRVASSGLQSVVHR
T2 sequence (P48730 whole entry): as above

With `CNC(=O)c1cc(-c2c(-c3ccc(F)cn3)nn3c2COC(C)(C(F)(F)F)C3)ccn1` (stereo not shown) [Example 175, 4-(2-(5-Fluoropyridin-2-yl)-6-methyl-6-(trifluoromethyl)-6,7-dihydro-4H-pyrazolo[5,1-c][1,4]oxazin-3-yl)-N-methylpicolinamide], the IC50 worked out at 148 nM in assay [1] and 3610 nM at human CSNK1D.
Take `CC1(C(F)(F)F)Cn2nc(-c3ccc(F)cn3)c(-c3ccnc4[nH]ncc34)c2CO1` (stereo not shown) [Example 176, 2-(5-Fluoropyridin-2-yl)-6-methyl-3-(1H-pyrazolo[3,4-b]pyridin-4-yl)-6-(trifluoromethyl)-6,7-dihydro-4H-pyrazolo[5,1-c][1,4]oxazine]: the values for the IC50 (in assay [1]; at human CSNK1D) were 7 nM and 198 nM, respectively.
Regarding `O=C1OCCn2nc(-c3ccc(F)cc3)c(-c3ccnc4[nH]ncc34)c21` [Example 181, 2-(4-Fluorophenyl)-3-(1H-pyrazolo[3,4-b]pyridin-4-yl)-6,7-dihydropyrazolo[5,1-c][1,4]oxazin-4-one], the figures for the IC50 (in assay [1]; at human CSNK1D) were 32 nM and 3240 nM, respectively.
As to `O=C1OCCn2nc(-c3ccc(F)cn3)c(-c3ccnc4[nH]ncc34)c21` [Example 182, 2-(5-Fluoro-2-pyridyl)-3-(1H-pyrazolo[3,4-b]pyridin-4-yl)-6,7-dihydropyrazolo[5,1-c][1,4]oxazin-4-one], the IC50 in assay [1] is 241 nM; at human CSNK1D, more than 10000 nM.
For the compound `CC(=O)Nc1cc(-c2c(-c3ccc(F)cn3)nn3c2OCCC3)ccn1` [Example 183, N-(4-(2-(5-Fluoropyridin-2-yl)-6,7-dihydro-5H-pyrazolo[5,1-b][1,3]oxazin-3-yl)pyridin-2-yl)acetamide], the figures for the half-inhibitory concentration (IC50) (in assay [1]; at human CSNK1D) were 7 nM and 220 nM, respectively.
On to `Fc1ccc(-c2nn3c(c2-c2ccnc4[nH]ncc24)OCCC3)cc1` [Example 184, 2-(4-Fluorophenyl)-3-(1H-pyrazolo[3,4-b]pyridin-4-yl)-6,7-dihydro-5H-pyrazolo[5,1-b][1,3]oxazine], for which the values for the IC50 (in assay [1]; on human CSNK1D) were 2 nM and 15 nM, respectively.
For `Cc1cc(-c2c(-c3ccc(F)cc3)nn3c2OCCC3)c2cn[nH]c2n1` [Example 185, 2-(4-Fluorophenyl)-3-(6-methyl-1H-pyrazolo[3,4-b]pyridin-4-yl)-6,7-dihydro-5H-pyrazolo[5,1-b][1,3]oxazine] the same measures were 1 nM and 17 nM.
In the case of `Fc1ccc(-c2nn3c(c2-c2ccnc4[nH]ncc24)OCCC3)nc1` [Example 186, 2-(5-Fluoropyridin-2-yl)-3-(1H-pyrazolo[3,4-b]pyridin-4-yl)-6,7-dihydro-5H-pyrazolo[5,1-b][1,3]oxazine], the IC50 in assay [1] came to 9 nM; on human CSNK1D it was 257 nM.
Turning to `Cc1cc(-c2c(-c3ccc(F)cn3)nn3c2OCCC3)c2cn[nH]c2n1` [Example 187, 2-(5-Fluoropyridin-2-yl)-3-(6-methyl-1H-pyrazolo[3,4-b]pyridin-4-yl)-6,7-dihydro-5H-pyrazolo[5,1-b][1,3]oxazine], the IC50 stood at 8 nM in assay [1] and 330 nM on human CSNK1D.
Take `Fc1cnc(-c2nn3c(c2-c2ccnc4[nH]ncc24)OCCC3)c(F)c1` [Example 188, 2-(3,5-Difluoro-2-pyridyl)-3-(1H-pyrazolo[3,4-b]pyridin-4-yl)-6,7-dihydro-5H-pyrazolo[5,1-b][1,3]oxazine]: the results for the IC50 (in assay [1]; on human CSNK1D) were 12 nM and 139 nM, respectively.
Consider `Cc1cc(-c2c(-c3ncc(F)cc3F)nn3c2OCCC3)c2cn[nH]c2n1` [Example 189, 2-(3,5-Difluoro-2-pyridyl)-3-(6-methyl-1H-pyrazolo[3,4-b]pyridin-4-yl)-6,7-dihydro-5H-pyrazolo[5,1-b][1,3]oxazine], for which the values for the IC50 (in assay [1]; on human CSNK1D) were 10 nM and 320 nM, respectively.
Consider `COc1ccc2nccc(-c3c(-c4ccc(F)cn4)nn4c3OCCC4)c2n1` [Example 190, 2-(5-Fluoro-2-pyridyl)-3-(6-methoxy-1,5-naphthyridin-4-yl)-6,7-dihydro-5H-pyrazolo[5,1-b][1,3]oxazine], for which the IC50 in assay [1] was determined as 4 nM; on human CSNK1D it was 215 nM.
On to `CC1COc2c(-c3ccnc4[nH]ncc34)c(-c3ccc(F)cc3)nn2C1` (stereo not shown) [Example 191, (R S)-2-(4-Fluorophenyl)-6-methyl-3-(1H-pyrazolo[3,4-b]pyridin-4-yl)-6,7-dihydro-5H-pyrazolo[5,1-b][1,3]oxazine], for which the results for the IC50 (in assay [1]; at human CSNK1D) were less than 0.5 nM and 5 nM, respectively.
As to `CC1COc2c(-c3ccnc4ccsc34)c(-c3ccc(F)cn3)nn2C1` (stereo not shown) [Example 195, 2-(5-Fluoropyridin-2-yl)-6-methyl-3-(thieno[3,2-b]pyridin-7-yl)-6,7-dihydro-5H-pyrazolo[5,1-b][1,3]oxazine], the IC50 in assay [1] was 21 nM; at human CSNK1D, 218 nM.
Regarding `CC1COc2c(-c3ccnc4[nH]ncc34)c(-c3ccc(F)cn3)nn2C1` (stereo not shown) [Example 196, 2-(5-Fluoropyridin-2-yl)-6-methyl-3-(1H-pyrazolo[3,4-b]pyridin-4-yl)-6,7-dihydro-5H-pyrazolo[5,1-b][1,3]oxazine], the values for the IC50 (in assay [1]; on human CSNK1D) were 2 nM and 40 nM, respectively.
For `Cc1cc(-c2c(-c3ccc(F)cn3)nn3c2OCC(C)C3)c2cn[nH]c2n1` (stereo not shown) [Example 197, 2-(5-Fluoropyridin-2-yl)-6-methyl-3-(6-methyl-1H-pyrazolo[3,4-b]pyridin-4-yl)-6,7-dihydro-5H-pyrazolo[5,1-b][1,3]oxazine] the same measures were 3 nM and 38 nM.
Take `Fc1ccc(-c2nn3c(c2-c2ccnc4[nH]ncc24)OCC2(COC2)C3)cc1` [Example 210, 2-(4-Fluorophenyl)-3-(1H-pyrazolo[3,4-b]pyridin-4-yl)spiro[5,7-dihydropyrazolo[5,1-b][1,3]oxazine-6,3′-oxetane]]: the IC50 in assay [1] is less than 0.5 nM; at human CSNK1D, 23 nM.
Take `Cc1cc(-c2c(-c3ccc(F)cc3)nn3c2OCC2(COC2)C3)c2cn[nH]c2n1` [Example 211, 2′-(4-Fluorophenyl)-3′-(6-methyl-1H-pyrazolo[3,4-b]pyridin-4-yl)-5′H,7′H-spiro[oxetane-3,6′-pyrazolo[5,1-b][1,3]oxazine]]: the results for the IC50 (in assay [1]; on human CSNK1D) were 1 nM and 6 nM, respectively.
For `CC1(C)COc2c(-c3ccnc4[nH]ncc34)c(-c3ccc(F)cc3)nn2C1` [Example 212, 2-(4-Fluorophenyl)-6,6-dimethyl-3-(1H-pyrazolo[3,4-b]pyridin-4-yl)-6,7-dihydro-5H-pyrazolo[5,1-b][1,3]oxazine] the same measures were less than 0.5 nM and 1 nM.
For `Cc1cc(-c2c(-c3ccc(F)cc3)nn3c2OCC(C)(C)C3)c2cn[nH]c2n1` [Example 213, 2-(4-Fluorophenyl)-6,6-dimethyl-3-(6-methyl-1H-pyrazolo[3,4-b]pyridin-4-yl)-6,7-dihydro-5H-pyrazolo[5,1-b][1,3]oxazine] the same measures were 1 nM and 2 nM.
`CC1(C)COc2c(-c3ccnc4ccsc34)c(-c3ccc(F)cn3)nn2C1` [Example 214, 2-(5-Fluoropyridin-2-yl)-6,6-dimethyl-3-(thieno[3,2-b]pyridin-7-yl)-6,7-dihydro-5H-pyrazolo[5,1-b][1,3]oxazine]: the half-inhibitory concentration (IC50) in assay [1] was found to be 9 nM; on human CSNK1D it was 75 nM.
For `CC(=O)Nc1cc(-c2c(-c3ccc(F)cc3)nn3c2OCCCC3)ccn1` [Example 215, N-(4-(2-(4-Fluorophenyl)-5,6,7,8-tetrahydropyrazolo[5,1-b][1,3]oxazepin-3-yl)pyridin-2-yl)acetamide] the same measures were 1 nM and 28 nM.
As to `Fc1ccc(-c2nn3c(c2-c2ccnc4[nH]ncc24)OCCCC3)cc1` [Example 216, 2-(4-Fluorophenyl)-3-(1H-pyrazolo[3,4-b]pyridin-4-yl)-5,6,7,8-tetrahydropyrazolo[5,1-b][1,3]oxazepane], the IC50 came to 2 nM in assay [1] and 38 nM on human CSNK1D.
Take `Cc1cc(-c2c(-c3ccc(F)cc3)nn3c2OCCCC3)c2cn[nH]c2n1` [Example 217, 2-(4-Fluorophenyl)-3-(6-methyl-1H-pyrazolo[3,4-b]pyridin-4-yl)-5,6,7,8-tetrahydropyrazolo[5,1-b][1,3]oxazepane]: the IC50 in assay [1] worked out at 2 nM; at human CSNK1D it was 25 nM.
The corresponding values for `Fc1ccc(-c2nn3c(c2-c2ccnc4[nH]ncc24)OCCCC3)nc1` [Example 218, 2-(5-Fluoro-2-pyridyl)-3-(1H-pyrazolo[3,4-b]pyridin-4-yl)-5,6,7,8-tetrahydropyrazolo[5,1-b][1,3]oxazepane] are 12 nM and 239 nM.
Turning to `Cc1cc(-c2c(-c3ccc(F)cn3)nn3c2OCCCC3)c2cn[nH]c2n1` [Example 219, 2-(5-Fluoro-2-pyridyl)-3-(6-methyl-1H-pyrazolo[3,4-b]pyridin-4-yl)-5,6,7,8-tetrahydropyrazolo[5,1-b][1,3]oxazepane], the IC50 worked out at 38 nM in assay [1] and 279 nM on human CSNK1D.
For `Fc1ccc(-c2nn3c(c2-c2ccnc4cn[nH]c24)CCC3)nc1` [Example 220, 7-[2-(5-Fluoro-2-pyridyl)-5,6-dihydro-4H-pyrrolo[1,2-b]pyrazol-3-yl]-1H-pyrazolo[4,3-b]pyridine] the same measures were 99 nM and 1490 nM.
For `Fc1ccc(-c2nn3c(c2-c2c(F)cnc4[nH]ncc24)CCC3)nc1` [Example 221, 5-Fluoro-4-[2-(5-fluoro-2-pyridyl)-5,6-dihydro-4H-pyrrolo[1,2-b]pyrazol-3-yl]-1H-pyrazolo[3,4-b]pyridine], the values for the IC50 (in assay [1]; at human CSNK1D) were 7 nM and 460 nM, respectively.
`Fc1ccc(-c2nn3c(c2-c2cc(C(F)F)nc4[nH]ncc24)CCC3)nc1` [Example 222, 6-(Difluoromethyl)-4-[2-(5-fluoro-2-pyridyl)-5,6-dihydro-4H-pyrrolo[1,2-b]pyrazol-3-yl]-1H-pyrazolo[3,4-b]pyridine]: the IC50 in assay [1] came to 11 nM; at human CSNK1D, 181 nM.
